From ChEMBL document CHEMBL1201862, “PubChem BioAssay data set” (2004)
Active and inactive are the calls of the source.

Tests used:
[1] = HeLa cell cytotoxicity, dose response, cytotoxicity control, 24 h, plate reader, powder samples, set 3 (AID 651864); format: functional, cell-based
[2] = cytotoxicity toward NIH3T3 fibroblasts, dose response, counter-screen, cell-based, ATP luminescence, mouse fibroblasts (AID 2010); format: functional;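 note: cells exposed to compound for about 90 hours before reading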
[3] = inhibitors of intracellular T. cruzi replication, confirmation, NIH3T3 host cells, beta-gal luminescence (AID 2044); format: functional, cell-based;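 note: intracellular parasites grown in NIH/3T3 mouse fibroblasts as host cells; luminescent beta-galactosidase reporter signal from transgenic T. cruzi replicating inside host cells; inhibitors lower the luminescence signal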
[4] = molecular target: T1, Sentrin-specific protease 8 (Homo sapiens, UniProt Q96LD8); format: functional;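 note: luminescence read-out of SENP8 inhibition, dose-response confirmation following an ultra-high-throughput screen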
T1 sequence (Q96LD8 whole entry): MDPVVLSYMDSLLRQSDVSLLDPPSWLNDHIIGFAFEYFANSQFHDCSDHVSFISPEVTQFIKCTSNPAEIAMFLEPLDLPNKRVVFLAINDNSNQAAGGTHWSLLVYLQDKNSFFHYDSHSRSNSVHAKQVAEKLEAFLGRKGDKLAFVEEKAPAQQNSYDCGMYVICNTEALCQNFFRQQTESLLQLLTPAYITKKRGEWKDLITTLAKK

[5] = molecular target: T2, Sentrin-specific protease 6 (Homo sapiens, UniProt Q9GZR1); format: functional;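 note: Luminescence-based dose-response confirmatory assay of SENP6 inhibition, following up an ultra-high-throughput screen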
T2 sequence (Q9GZR1 whole entry): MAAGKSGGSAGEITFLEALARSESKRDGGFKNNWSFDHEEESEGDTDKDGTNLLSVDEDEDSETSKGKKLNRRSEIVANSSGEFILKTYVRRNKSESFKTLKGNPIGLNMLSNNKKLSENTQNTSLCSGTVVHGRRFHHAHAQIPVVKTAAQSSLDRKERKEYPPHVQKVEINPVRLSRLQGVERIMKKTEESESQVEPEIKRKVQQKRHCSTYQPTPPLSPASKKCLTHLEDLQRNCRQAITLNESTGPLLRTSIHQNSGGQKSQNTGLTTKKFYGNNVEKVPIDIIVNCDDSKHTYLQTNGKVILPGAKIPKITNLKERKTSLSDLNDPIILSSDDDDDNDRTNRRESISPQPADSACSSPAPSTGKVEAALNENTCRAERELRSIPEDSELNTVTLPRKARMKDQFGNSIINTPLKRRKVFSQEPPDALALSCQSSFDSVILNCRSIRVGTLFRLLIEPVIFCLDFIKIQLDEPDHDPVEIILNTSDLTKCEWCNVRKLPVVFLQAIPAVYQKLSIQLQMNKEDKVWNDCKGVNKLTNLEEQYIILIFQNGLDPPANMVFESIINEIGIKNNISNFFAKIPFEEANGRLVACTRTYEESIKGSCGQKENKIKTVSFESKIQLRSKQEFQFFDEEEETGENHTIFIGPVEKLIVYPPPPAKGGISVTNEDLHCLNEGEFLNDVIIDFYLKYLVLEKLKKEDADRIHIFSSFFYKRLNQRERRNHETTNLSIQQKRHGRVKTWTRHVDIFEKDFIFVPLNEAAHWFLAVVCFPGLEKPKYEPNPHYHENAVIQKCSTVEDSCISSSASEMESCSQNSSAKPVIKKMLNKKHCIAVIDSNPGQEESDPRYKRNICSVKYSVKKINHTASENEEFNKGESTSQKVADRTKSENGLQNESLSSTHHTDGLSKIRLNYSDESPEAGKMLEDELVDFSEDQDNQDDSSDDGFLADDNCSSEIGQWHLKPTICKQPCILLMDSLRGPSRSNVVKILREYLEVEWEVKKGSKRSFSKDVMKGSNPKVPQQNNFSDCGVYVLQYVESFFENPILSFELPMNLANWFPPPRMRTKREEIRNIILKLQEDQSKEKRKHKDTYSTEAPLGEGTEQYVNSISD

[6] = molecular target: T3, Caspase-3 (Homo sapiens, UniProt P42574); format: functional;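 note: Dose-response selectivity test against caspase-3 for candidate inhibitors of sentrin-specific proteases (SENPs)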
T3 sequence (P42574 whole entry): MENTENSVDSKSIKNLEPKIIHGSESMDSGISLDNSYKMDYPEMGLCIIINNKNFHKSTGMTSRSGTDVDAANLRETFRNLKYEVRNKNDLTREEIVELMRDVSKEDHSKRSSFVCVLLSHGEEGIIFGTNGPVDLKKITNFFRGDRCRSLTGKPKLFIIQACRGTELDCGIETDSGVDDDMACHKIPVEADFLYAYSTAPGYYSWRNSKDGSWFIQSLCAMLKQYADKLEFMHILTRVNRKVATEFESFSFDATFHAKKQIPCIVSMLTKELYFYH

[7] = cells
[8] = molecular target: T4, Oxysterols receptor LXR-beta (Homo sapiens, UniProt P55055); format: functional, cell-based
T4 sequence (P55055 whole entry): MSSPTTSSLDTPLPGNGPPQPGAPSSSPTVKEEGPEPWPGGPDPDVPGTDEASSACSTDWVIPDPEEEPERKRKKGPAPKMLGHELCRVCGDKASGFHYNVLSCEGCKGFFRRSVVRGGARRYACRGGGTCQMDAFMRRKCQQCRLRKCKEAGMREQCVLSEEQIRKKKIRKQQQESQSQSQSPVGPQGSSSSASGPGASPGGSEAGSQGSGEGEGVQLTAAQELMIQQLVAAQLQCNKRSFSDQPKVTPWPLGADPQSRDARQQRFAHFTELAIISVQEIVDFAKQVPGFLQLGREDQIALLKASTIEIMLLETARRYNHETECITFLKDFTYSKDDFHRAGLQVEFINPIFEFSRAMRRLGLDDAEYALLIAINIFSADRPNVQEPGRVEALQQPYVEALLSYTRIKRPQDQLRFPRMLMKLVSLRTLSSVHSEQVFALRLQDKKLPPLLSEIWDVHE

[9] = molecular target: T5, Sentrin-specific protease 7 (Homo sapiens, UniProt Q9BQF6); format: functional;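 note: Luminescence-based dose-response confirmation of ultra-high-throughput screening hits, measuring inhibition of SENP7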
T5 sequence (Q9BQF6 whole entry): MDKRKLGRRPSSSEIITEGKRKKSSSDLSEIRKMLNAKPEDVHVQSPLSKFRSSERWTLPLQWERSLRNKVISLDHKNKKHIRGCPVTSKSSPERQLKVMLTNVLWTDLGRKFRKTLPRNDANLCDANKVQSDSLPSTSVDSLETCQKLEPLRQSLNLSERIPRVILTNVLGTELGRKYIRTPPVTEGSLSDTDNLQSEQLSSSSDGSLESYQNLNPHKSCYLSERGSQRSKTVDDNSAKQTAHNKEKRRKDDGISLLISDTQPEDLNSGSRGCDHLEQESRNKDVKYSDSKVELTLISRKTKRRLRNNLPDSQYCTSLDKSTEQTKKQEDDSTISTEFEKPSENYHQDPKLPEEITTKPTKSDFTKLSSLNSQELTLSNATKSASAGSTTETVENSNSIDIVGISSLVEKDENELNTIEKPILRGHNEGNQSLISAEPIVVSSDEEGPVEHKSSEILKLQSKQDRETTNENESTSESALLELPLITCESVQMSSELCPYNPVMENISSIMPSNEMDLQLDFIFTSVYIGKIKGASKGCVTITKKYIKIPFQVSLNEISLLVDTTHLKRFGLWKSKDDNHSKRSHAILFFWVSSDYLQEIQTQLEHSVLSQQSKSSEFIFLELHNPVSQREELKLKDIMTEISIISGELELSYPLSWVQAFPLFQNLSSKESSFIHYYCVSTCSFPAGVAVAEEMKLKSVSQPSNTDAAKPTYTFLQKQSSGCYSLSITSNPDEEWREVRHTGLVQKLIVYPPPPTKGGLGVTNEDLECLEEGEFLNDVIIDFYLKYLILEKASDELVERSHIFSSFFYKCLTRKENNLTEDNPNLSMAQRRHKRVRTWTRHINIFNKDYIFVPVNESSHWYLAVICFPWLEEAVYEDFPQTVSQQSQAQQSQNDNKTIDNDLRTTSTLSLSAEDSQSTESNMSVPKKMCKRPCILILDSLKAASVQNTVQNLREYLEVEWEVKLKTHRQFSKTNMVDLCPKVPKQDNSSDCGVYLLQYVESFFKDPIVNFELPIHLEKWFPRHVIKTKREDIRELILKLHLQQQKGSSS

[10] = cytotoxicity in OV-90 ovarian cancer cells, dose response, PAX8 inhibitor project, cell-based, plate reader, dry powder, SA8 (AID 743149); format: functional
[11] = PAX2 cell-based inhibition, dose response, selectivity assay for PAX8 inhibitor project, plate reader, dry powder samples (AID 743048); format: functional;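 note: HEK293 cells carrying a WT1 promoter luciferase reporter driven by expressed Pax2; potency is for inhibition of Pax2 driven reporter signal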
[12] = non-specific cell cytotoxicity, dose response, cytotoxicity control for PAX8 inhibitor project, plate reader, dry powder samples (AID 743021); format: functional, cell-based
[13] = cytotoxicity dependent on PAX8, dose response, cell-based, plate reader, dry powder (AID 743049); format: functional
[14] = IOSE-T80 ovarian epithelial cell cytotoxicity, dose response, cytotoxicity control for PAX8 inhibitor project, plate reader, dry powder samples (AID 743045); format: functional, cell-based
[15] = NIH:OVCAR-3 ovarian cancer cell cytotoxicity, dose response, PAX8 inhibitor project, plate reader, dry powder samples (AID 743044); format: functional, cell-based
[16] = A2780 ovarian cancer cell cytotoxicity, dose response, cytotoxicity control, plate reader, dry powder samples (AID 743046); format: functional, cell-based
[17] = PAX5 activity inhibitors, dose response, selectivity assay for PAX8 inhibitor project, cell-based, plate reader, dry powder samples (AID 743047); format: functional;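 note: HEK293 cells carrying a Pax5 driven CD19 promoter luciferase reporter; potency of inhibitors that lower reporter luminescence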
[18] = cytotoxicity in COV362 ovarian cancer cells, dose response, cytotoxicity control for PAX8 inhibitor project, cell-based, plate reader, dry powder, SA12 (AID 743144); format: functional
[19] = molecular target: Paired box protein Pax-8 (Homo sapiens, UniProt Q06710); experiment: inhibitors of PAX8-driven TPO luciferase reporter, dose response, RMG-I cells, cherry-pick (AID 687027); format: functional, cell-based;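 note: luciferase reporter driven by Pax8 target thyroperoxidase promoter measured by SteadyGlo luminescence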
Chain of Paired box protein Pax-8 (Q06710 whole entry): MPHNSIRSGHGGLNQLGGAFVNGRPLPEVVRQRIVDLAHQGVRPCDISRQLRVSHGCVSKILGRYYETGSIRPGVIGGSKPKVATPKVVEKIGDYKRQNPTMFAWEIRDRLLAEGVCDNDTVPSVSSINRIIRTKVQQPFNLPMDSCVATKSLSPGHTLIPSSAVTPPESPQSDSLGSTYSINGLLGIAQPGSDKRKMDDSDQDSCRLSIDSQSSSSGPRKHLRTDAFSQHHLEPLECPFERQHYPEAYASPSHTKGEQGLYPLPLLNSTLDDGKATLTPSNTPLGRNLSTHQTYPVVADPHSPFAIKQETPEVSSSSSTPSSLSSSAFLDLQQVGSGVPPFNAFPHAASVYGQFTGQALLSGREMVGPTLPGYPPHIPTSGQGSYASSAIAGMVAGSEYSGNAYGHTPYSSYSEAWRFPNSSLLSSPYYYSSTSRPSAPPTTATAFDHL

[20] = tested on: INS1; experiment: beta cell apoptosis inhibitors, cytokine rescue, dose response, luminescence, retest (AID 449756); format: functional, cell-based; conditions: Rattus norvegicus;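 note: cell death triggered by IL-1 beta plus TNF-alpha plus IFN-gamma mixture; protective hits raise ATP signal compared with cytokine alone wells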
[21] = cytotoxicity in COV434 cells, dose response, cytotoxicity control for PAX8 inhibitor project, cell-based, plate reader, dry powder, SA7 (AID 743145); format: functional
[22] = cytotoxicity in OVCAR4 cells, dose response, cytotoxicity control for PAX8 inhibitor project, cell-based, plate reader, dry powder, SA11 (AID 743150); format: functional; conditions: OVCAR-4
[23] = cells; remark: listed apart in the source
[24] = inhibitors of PGC1a acetylation in cells, dose response, cell-based, cherry-picked samples (AID 720514); format: functional;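 note: potency may reflect raised or lowered acetylation signal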
[25] = molecular target: T4, Oxysterols receptor LXR-beta; format: functional, cell-based; remark: listed apart in the source
[26] = HepG2 cell cytotoxicity, dose response, cytotoxicity control, ATP luminescence, cherry-pick, activator set 2 (AID 1053143); format: functional, cell-based

## CCC(C)NC(=O)Cc1ccc(-c2ccccc2)cc1 (stereo unspecified)
[1]
  AC50: 141 µM (active)
[2]
  EC50: > 60 µM (not active)
[3]
  EC50: 0.794 µM (active)

## Cc1cc(C)nc(Nc2nc(-c3ccccc3)cs2)n1
[4]
  IC50: 3.29 µM (active)
[5]
  IC50: 2.1 µM (active)
[6]
  IC50: > 100 µM (inactive)
[7]
  EC50: > 67.5 µM (inactive)
[8]
  EC50: > 67.5 µM (inactive)
[9]
  IC50: 1.89 µM (active)

## O=C(Nc1cccc(Cl)c1)Nc1nnc(CSCCOc2ccc(Cl)cc2)s1
[10]
  AC50: 26.1 µM (active)
[11]
  AC50: 8.06 µM (active)
[12]
  AC50: 16 µM (active)
[13]
  AC50: 5.65 µM (active)
[14]
  AC50: 14.6 µM (active)
[15]
  AC50: 15 µM (active)
[16]
  AC50: 6.08 µM (active)
[17]
  AC50: 4.51 µM (active)
[18]
  AC50: 10.7 µM (active)
[19]
  AC50: 5.94 µM (active)
[20]
  AC50: 3.05 µM (active)
[21]
  AC50: 12.8 µM (active)
[22]
  AC50: 22.2 µM (active)

## CC(C)N1CCc2c(sc(NC(=O)Cc3ccccc3)c2C#N)C1
[23]
  AC50: 10.8 µM (active)

## CCOc1ccnc(OCC)c1Br
[24]
  AC50: 32.8 µM (active)

## Cc1nc2[nH]c(-c3cccs3)nc2cc1Br
[25]
  EC50: > 67.5 µM (inactive)
[26]
  AC50: 26 µM (active)
